Measured values from PubChem BioAssay (NCI).
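Cells were grown in 96-well plates and exposed to each compound for 48 hours at five concentrations; endpoints were interpolated linearly between bracketing concentrations, or set to the highest concentration if not reached. TGI is the concentration that stops growth completely.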 *1 amine or outer side, *2 acyl side, *3 side chain or, on linkers, in order; H or OH if unused. Where a SMILES comes first, the peptide text is derived from it. Bridges are numbered along the chain shown (N, C = ends). Roman numbers before positions name the chains, in order. [ ]: non-standard residue; d: D form. ξ: configuration not given here. X54 = N=C(N)NCCC[C@@H](NC(=N)CCCCCCC(=N)N[C@H](CCCNC(=N)N)C(=O)[*:2])C(=O)[*:1]; dIgl = N[C@@H](C(=O)O)C1Cc2ccccc2C1; Hyp = O=C(O)[C@@H]1C[C@@H](O)CN1; ξIgl = NC(C(=O)O)C1Cc2ccccc2C1; ξOic = O=C(O)C1CC2CCCCC2N1; ξR = N=C(N)NCCCC(N)C(=O)O; ξP = O=C(O)C1CCCN1; ξS = NC(CO)C(=O)O

Experiments:
Experiment in all cases: DTP human tumour cell line panel, 48 h
A549 NSCLC = test system: A549 NSCLC
K-562 leukemia = test system: K-562 leukemia
LOX IMVI melanoma = test system: LOX IMVI melanoma
MDA-N = test system: MDA-N
MOLT-4 leukemia = test system: MOLT-4 leukemia
OVCAR-3 ovarian = test system: OVCAR-3 ovarian
PC-3 prostate = test system: PC-3 prostate
RPMI-8226 leukemia = test system: RPMI-8226 leukemia
RXF 393 renal = test system: RXF 393 renal
SW-620 colon = test system: SW-620 colon
T-47D breast = test system: T-47D breast

| Compound | TGI (A549 NSCLC) [µM] | TGI (K-562 leukemia) [µM] | TGI (LOX IMVI melanoma) [µM] | TGI (MDA-N) [µM] | TGI (MOLT-4 leukemia) [µM] | TGI (OVCAR-3 ovarian) [µM] | TGI (PC-3 prostate) [µM] | TGI (RPMI-8226 leukemia) [µM] | TGI (RXF 393 renal) [µM] | TGI (SW-620 colon) [µM] | TGI (T-47D breast) [µM] |
| --- | --- | --- | --- | --- | --- | --- | --- | --- | --- | --- | --- |
| CC(C)(C)NC1=NC(C(F)(F)F)(C(F)(F)F)NC(=O)N1 | > 100 | > 100 | > 100 | > 100 | > 100 | > 100 | > 100 | > 100 | > 100 | > 100 | > 100 |
| N=C(N)NCCCC(NC(=O)C1CC2CCCCC2N1C(=O)[C@H](NC(=O)C(CO)NC(=O)C(NC(=O)CNC(=O)[C@@H]1C[C@@H](O)CN1C(=O)C1CCCN1C(=O)C(CCCNC(=N)N)NC(=O)[C@@H](CCCNC(=N)N)NC(=N)CCCCCCC(=N)N[C@H](CCCNC(=N)N)C(=O)NC(CCCNC(=N)N)C(=O)N1CCCC1C(=O)N1C[C@H](O)C[C@H]1C(=O)NCC(=O)NC(C(=O)NC(CO)C(=O)N[C@@H](C(=O)N1C(C(=O)NC(CCCNC(=N)N)C(=O)O)CC2CCCCC21)C1Cc2ccccc2C1)C1Cc2ccccc2C1)C1Cc2ccccc2C1)C1Cc2ccccc2C1)C(=O)O (stereo partly specified) (I: [ξR][ξP][Hyp]G[ξIgl][ξS][dIgl][ξOic][ξR]-OH / II: [ξR][ξP][Hyp]G[ξIgl][ξS][dIgl][ξOic][ξR]-OH; linker I:N-II:N via X54) | > 10 | 4.03 | 4.94 | 5.23 | 2.89 | 3.4 | 3.59 | 4.48 | 3.02 | 6.35 | 4.42 |
| COC(=O)CNC(=O)C(Cc1ccccc1)NC(=O)c1ccc(-c2ccc(Cl)cc2Cl)o1 (stereo unspecified) | > 100 | > 100 | 69 | 86.8 | 49.2 | 72.5 | > 100 | 51.9 | 73.5 | > 100 | > 100 |
| CSc1ncc2c(n1)-c1ccccc1OC2N1CCOCC1 (stereo unspecified) | > 100 | > 100 | > 100 | > 100 | > 100 | > 100 | > 100 | > 100 | > 100 | > 100 | 80.3 |
| CC(C)(C)COC(=O)C(C)(C)NC(=O)C(CC(=O)OCc1ccccc1)NC(=O)OCc1ccccc1 (stereo unspecified) | > 100 | > 100 | > 100 | > 100 | > 100 | > 100 | > 100 | > 100 | > 100 | > 100 | 60.2 |
| COc1cc(C2c3cc4c(cc3OC(NNc3ccccc3)C2C)OCO4)cc(OC)c1OC (stereo unspecified) | > 42.3 | > 32.1 | > 37.8 | 3.43 | > 47.3 | 19.2 | > 56.3 | 31.8 | > 94.3 | > 100 | > 100 |
